pIC50: −log10 of the molar value.
Assays:
C6 cell line = assay: Flow cytometric analysis (Annexin V-FITC/PI); type: cell-based, Rat; conditions: for Q1 percentage of necrotic cells / Q2 percentage of late apoptotic cells / Q4 percentage of early apoptotic cells / Q3 percentage of viable cells / viability at 15 µM: 24 h; for percentages of apoptotic cells: C6, at IC50 concentrations, 24 h (sum of Q2 and Q4); for viability at 15 µM: Rattus norvegicus, read-out: Q3 percentage of viable cells
Text: In the therapy of cancer, apoptosis, or programmed cell death, is one of the distinguished mechanisms of cytotoxic agents. It is an important approach to express the cell death pathway and most of the anticancer drugs induce apoptosis in tumor cells. Annexin V-FITC is a reagent that can detect and measure quantitate of apoptotic cells by flow cytometry. Staining cells with PI and Annexin V-FITC show the differences between live, apoptotic, dead, and late apoptotic or necrotic cells. Thus, this method provides evidence on the pathway of cell death.
Death pathway of the carcinogenic cell lines was detected by Annexin V-FITC Apoptosis Detection Kit (BD, Pharmingen, City, US State abbrev. if applicable, Country) as reported in the manufacturer’s instructions. […] After 24 h incubation period, cells were harvested by centrifugation at 1200 rpm for 5 min. at room temperature, rinsed with cold water twice and then suspended at 1 × 10^6 cells/mL concentration in Annexin V-FITC binding buffer. Propidium iodide ([…]) and annexin V-FITC ([…]) were added for staining the cells and the fluorescence measurements was performed using a flow cytometer. FCSExpress software (version, Manufacturer, City, US State abbrev. if applicable, Country) was used to display the percent of normal and apoptotic cells at different stages. […] The experiments were carried out in triplicate.

[1] = tested on: MCF-7 (Human breast adenocarcinoma cell line); assay: MTT cytotoxicity test, MCF-7; type: cell-based
Procedure: (§1) MTT assay, depending on the capability of metabolically active cells that change the pale yellow MTT colour to a spectrophotometrically measured blue formazan salt, is one of the most favoured cytotoxicity tests. We assessed the antitumor potential of new benzothiazole-acylhydrazones on A549, C6, MCF-7, and HT-29 cell lines with various concentrations (1 mM, 0.316 mM, 0.1 mM, 0.0316 mM, 0.01 mM, 0.00316 mM, 0.001 mM, 0.000316 mM). In addition, the cytotoxic activities of compounds 4a–4j were evaluated against healthy NIH3T3 cells, owing to show the selectivity towards carcinogenic cells. The IC50 values of the compounds against cell lines are represented in Table 1.
(§2) Metabolic activity of viable cells was measured by MTT assay based on the reduction of 3-(4,5-dimethylthiazol-2-yl)-2,5-diphenyltetrazolium salt to a formazan product, which can be quantified spectrophotometrically to determine the percent of viable cells.
(§3) Anticancer activities of new benzothiazole acylhydrazones derivatives were evaluated against A549 C6, MCF-7 and HT-29 cell lines. The selectivity of their cytotoxic effects was evaluated on NIH/3T3 mouse embryonic fibroblast cells. NIH/3T3 cells were incubated in DMEM supplemented with fetal calf serum, penicillin (100 IU/mL), streptomycin ([…]) and 7.5% NaHCO3 at 37 °C in a humidified atmosphere of 95% air and 5% CO2. Carcinogenic cells were incubated in RPMI medium supplemented with fetal calf serum, penicillin (100 IU/mL), streptomycin ([…]) and 7.5% NaHCO3 at 37 °C in a humidified atmosphere of 95% air and 5% CO2. All cell lines were seeded at a density of 1 × 10^4 cells into the 96-well plates. After 24 h of incubating period, the culture mediums were removed and test compounds were added at concentrations of 0.000316–1 mM. After a 24 h incubation period, OD of samples were measured by a microplate reader (Biotek, Winooski, VT, USA) at 540 nm. Inhibition % at concentrations was determined using the formula below and IC50 values were calculated by nonlinear regression analysis using the SigmaPlot v.10 package program (Manufacturer, City, US State abbrev. if applicable, Country).

[2] = tested on: NIH3T3 (Mouse embryo fibroblast cell line); assay: MTT cytotoxicity test, healthy NIH3T3 cells; type: cell-based; conditions: for pIC50: MTT, 24 h incubation, healthy cells
Procedure: as §1, §2, §3

[3] = tested on: C6 (Rat brain glioma cell line); assay: MTT cytotoxicity test, C6; type: cell-based; conditions: 24 h incubation
Procedure: as §1, §2, §3

[4] = tested on: A549 (Human lung adenocarcinoma epithelial cell line); assay: MTT cytotoxicity test, A549; type: cell-based
Procedure: as §1, §2, §3

[5] = tested on: HT-29 (Human colorectal adenocarcinoma cell line); assay: MTT cytotoxicity test, HT-29; type: cell-based
Procedure: as §1, §2, §3

[6] = tested on: DNA synthesis of C6 cells; assay: DNA synthesis inhibition assay (BrdU cell proliferation); type: cell-based, Rat; conditions: C6, IC50/4 to 4 × IC50, 24 h
Procedure: This immunostaining assay is related to detecting the attendance of BrdU into nuclear DNA instead of thymidine during S-phase of the cell cycle using specific anti-BrdU antibodies. Thus, this study was performed to evaluate inhibitory effects of compounds 4d, 4e, and 4h on proliferation of C6 cell lines. […] Figure 2 represents the DNA synthesis inhibitory effect of compounds 4d, 4e, and 4h on C6 cells.
The BrdU cell proliferation method was performed to analyse the effects of compounds 4d, 4e and 4h on proliferation of C6 cells. C6 cells were seeded into the 96-well plates at a density of 1 × 10^4 cells. […] At the end of the incubation period, BrdU solution was added and cells were reincubated for 2 h at 37 °C. Anti-BrdU-POD ([…]) was added and the mixture was incubated for 90 min. Microplates were washed with PBS for three times. After adding substrate solution, the mixture was incubated for 15 min. OD of the wells were determined at 492 nm.

[7] = Homo sapiens, MCF7, 24 h incubation
[8] = Homo sapiens, A549, 24 h incubation
[9] = Homo sapiens, HT-29, 24 h incubation

SMILES	Q1 percentage of necrotic cells (C6 cell line; C6, IC50 (0.03 mM)) [%]	Q2 percentage of late apoptotic cells (C6 cell line; C6, IC50 (0.03 mM)) [%]	Q4 percentage of early apoptotic cells (C6 cell line; C6, IC50 (0.03 mM)) [%]	percentages of apoptotic cells (C6 cell line) [%]	pIC50 [1, 7]	pIC50 ([2]; Mus musculus, NIH3T3)	pIC50 ([3]; Rattus norvegicus, Glioma cell)	pIC50 [4, 8]	pIC50 [5, 9]	melting point [°C]	other results
N.N.[Cl][Pt][Cl] [Cisplatin, reference compound]	3.5	18.3	2.6	20.9							pIC50 ([1]; 24 h incubation): 4.30; pIC50 [2]: < 3.00; pIC50 [3]: 4.52; pIC50 ([4]; 24 h incubation): 4.22; pIC50 ([5]; 24 h incubation): 4.22
O=C(CSc1nc2cc(Cl)ccc2s1)NN=Cc1ccc(N2CCCCC2)cc1 [Compound 4a, 2-((5-Chlorobenzothiazol-2-yl)thio)-N’-(4-(piperidin-1-yl)benzylidene)acetohydrazide]					3.31	4.00	4.00	< 3.00	3.28	178 to 179	
CC1CCCCN1c1ccc(C=NNC(=O)CSc2nc3cc(Cl)ccc3s2)cc1 (stereo not drawn) [Compound 4b, 2-((5-Chlorobenzothiazol-2-yl)thio)-N’-(4-(2-methylpiperidin-1-yl)benzylidene)acetohydrazide]					< 3.00	4.00	4.00	3.00	3.00	138 to 139	
CC1CCCN(c2ccc(C=NNC(=O)CSc3nc4cc(Cl)ccc4s3)cc2)C1 (stereo not drawn) [Compound 4c, 2-((5-Chlorobenzothiazol-2-yl)thio)-N’-(4-(3-methylpiperidin-1-yl)benzylidene)acetohydrazide]					4.00	4.52	4.00	3.28	3.52	149 to 150	
CC1CCN(c2ccc(C=NNC(=O)CSc3nc4cc(Cl)ccc4s3)cc2)CC1 [Compound 4d, 2-((5-Chlorobenzothiazol-2-yl)thio)-N’-(4-(4-methylpiperidin-1-yl)benzylidene)acetohydrazide]	6.9	3.1	2.4	5.5	4.00	< 3.00	4.52	< 3.00	3.52		Q1 percentage of necrotic cells (C6 cell line; C6, 2 × IC50 (0.06 mM)): 4.5%; Q2 percentage of late apoptotic cells (C6 cell line; C6, 2 × IC50 (0.06 mM)): 7.1%; Q3 percentage of viable cells (C6 cell line; C6, 2 × IC50 (0.06 mM)): 74.5%; Q4 percentage of early apoptotic cells (C6 cell line; C6, 2 × IC50 (0.06 mM)): 13.9%; Q3 percentage of viable cells (C6 cell line; C6, IC50 (0.03 mM)): 87.6%; Q1 percentage of necrotic cells (C6 cell line; C6, IC50/2 (0.015 mM)): 16.4%; Q2 percentage of late apoptotic cells (C6 cell line; C6, IC50/2 (0.015 mM)): 12.3%; Q4 percentage of early apoptotic cells (C6 cell line; C6, IC50/2 (0.015 mM)): 0.1%; viability at 15 µM (C6 cell line; C6, IC50/2 (0.015 mM)): 71.2%; DNA synthesis inhibitory activity compared with cisplatin [6]: higher inhibition potency than cisplatin at all concentrations
COc1ccc(N2CCN(c3ccc(C=NNC(=O)CSc4nc5cc(Cl)ccc5s4)cc3)CC2)cc1 [Compound 4e, 2-((5-Chlorobenzothiazol-2-yl)thio)-N’-(4-(4-(4-methoxyphenyl)piperazin-1-yl)benzylidene)acetohydrazide]	9.8	16.0	3.5	19.5	3.52	5.00	4.52	4.52	< 3.00		Q1 percentage of necrotic cells (C6 cell line; C6, 2 × IC50 (0.06 mM)): 10.1%; Q2 percentage of late apoptotic cells (C6 cell line; C6, 2 × IC50 (0.06 mM)): 14.0%; Q3 percentage of viable cells (C6 cell line; C6, 2 × IC50 (0.06 mM)): 73.3%; Q4 percentage of early apoptotic cells (C6 cell line; C6, 2 × IC50 (0.06 mM)): 2.5%; Q3 percentage of viable cells (C6 cell line; C6, IC50 (0.03 mM)): 70.7%; Q1 percentage of necrotic cells (C6 cell line; C6, IC50/2 (0.015 mM)): 13.5%; Q2 percentage of late apoptotic cells (C6 cell line; C6, IC50/2 (0.015 mM)): 3.8%; Q4 percentage of early apoptotic cells (C6 cell line; C6, IC50/2 (0.015 mM)): 0%; viability at 15 µM (C6 cell line; C6, IC50/2 (0.015 mM)): 82.6%; selectivity index (SI) ([2]; NIH3T3 versus cancer cells): 0.33; DNA synthesis inhibitory activity compared with cisplatin [6]: higher antiproliferative effect than cisplatin at the concentrations of IC50/2, IC50, 2 × IC50, and 4 × IC50
COc1ccc2sc(SCC(=O)NN=Cc3ccc(N4CCCCC4)cc3)nc2c1 [Compound 4f, 2-((5-Methoxybenzothiazol-2-yl)thio)-N’-(4-(piperidin-1-yl)benzylidene)acetohydrazide]					< 3.00	4.52	< 3.00	< 3.00	< 3.00	138 to 139	
COc1ccc2sc(SCC(=O)NN=Cc3ccc(N4CCCCC4C)cc3)nc2c1 (stereo not drawn) [Compound 4g, 2-((5-Methoxybenzothiazol-2-yl)thio)-N’-(4-(2-methylpiperidin-1-yl)benzylidene)acetohydrazide]					< 3.00	4.00	< 3.00	< 3.00	< 3.00	138 to 139	
COc1ccc2sc(SCC(=O)NN=Cc3ccc(N4CCC(C)CC4)cc3)nc2c1 [Compound 4i, 2-((5-Methoxybenzo[d]thiazol-2-yl)thio)-N’-(4-(4-methylpiperidin-1-yl)benzylidene)acetohydrazide]					3.52	4.52	4.00	3.31	3.00	149 to 150	
COc1ccc(N2CCN(c3ccc(C=NNC(=O)CSc4nc5cc(OC)ccc5s4)cc3)CC2)cc1 [Compound 4j, 2-((5-Methoxybenzo[d]thiazol-2-yl)thio)-N’-(4-(4-(4-methoxyphenyl)piperazin-1-yl)benzylidene)acetohydrazide]					< 3.00	< 3.00	< 3.00	< 3.00	< 3.00	199 to 200	

— paper PMC6102592, “Synthesis of New Benzothiazole Acylhydrazones as Anticancer Agents” (Molecules : A Journal of Synthetic Chemistry and Natural …, 2018)
